The text below walks through data of the OPERA property sets (Mansouri et al. 2018).

Peptide text beside a SMILES is read from it.

Broadly, the logP is the decadic logarithm of the partition coefficient of the neutral form, usually between octanol and water. A low value points to lower lipophilicity.

For `CCCCC1OC(=O)c2ccccc21` (stereo unspecified), the log partition coefficient (logP) is 2.8. The same measure for `CCOC(=O)C(F)(F)F`: 1.18; for `c1ccc(Nc2ccc3ccccc3c2)cc1`: 4.38; for `CC(=O)c1ccc(O)cc1`: 1.35.

Turning to `CCOC(=O)C(=Cc1cccc(C)c1)C(=O)OCC`, the logP was 3.55.

With `O=C1C=CC(=O)N1`, the logP is -0.29. The molecule `CC(CO)NC1=C(N2CC2)C(=O)C(NC(C)CO)=C(N2CC2)C1=O` (stereo unspecified) yielded a log partition coefficient (logP) of -0.37.

The molecule `CNCc1ccccc1` came in with a log partition coefficient (logP) of 1.52.

`CC(C)C(=O)CC(=O)C(C)C` gave a logP of 2.22. The molecule `CC(=O)N[C@H](C(=O)N[C@H](C(N)=O)C(C)C)C(C)C` (Ac-Val-Val-NH2) showed a logP of -0.32. For `O=C(Nc1ccc(Br)cc1)C(F)(F)F`, the logP stood at 3.34.

The molecule `CN(C)N=Nc1ccccc1` registered a logP of 2.59. The same measure for `C=C(C)CC1(CC)C(=O)NC(=S)NC1=O`: 2.19; for `COc1cc(S(C)=O)ccc1-c1nc2ncncc2[nH]1` (stereo unspecified): 0.53. As to `COC(=O)COc1ccccc1C`, the log partition coefficient (logP) amounted to 2.08. In turn, `CCOP(=S)(NC(C)C)Oc1ccccc1C(=O)OC(C)C` (stereo unspecified) registered a log partition coefficient (logP) of 4.12. Take `Oc1cccc(I)c1`: the log partition coefficient (logP) stood at 2.93.

With `COc1ccc(C(C)=O)c(OC)c1OC`, the logP was found to be 1.63.

For the molecule `S=C1CCCO1`, the logP came out at 0.6. For `CCCc1ncc([N+](=O)[O-])n1CCNC(=S)OC`, the logP was 1.94.

Turning to `CCCCSCS(=O)CC(C)NC(=O)C=Cc1c(C)[nH]c(=O)[nH]c1=O` (stereo unspecified), the logP amounted to 0.82.

`COc1cccc(N)c1`: the log partition coefficient (logP) amounted to 0.93.

`COc1cccc(C(=O)N(C)C)c1` displayed a lipophilicity (logP) of 1. For the molecule `COc1ccc(CN(CCN(C)C)c2ccccn2)cc1`, the logP stood at 3.27. The molecule `N#Cc1ccc2[nH]ccc2c1` displayed a logP of 2.38. Turning to `Nc1nc(N)nc(N)n1`, the logP is -1.37. As to `COc1cccc([N+](=O)[O-])c1`, the logP stood at 2.16.

The molecule `CCC1=C(N2CC2)C(=O)C(C)=C(N2CC2)C1=O` gave a logP of 1.35.

`C=C1C(=O)OC2C1CCC(C)C1C=CC(=O)C12C` (stereo unspecified) registered a logP of 1.03.

The molecule `O=C(O)Cc1c[nH]c2ccccc12` gave a logP of 1.41. `O=[N+]([O-])c1ccc(O)c2ncccc12` gave a logP of 1.99. In turn, `CCOC(OCC)OCC` gave a lipophilicity (logP) of 1.2.

`Nc1cccc2cc3ccccc3nc12` had a logP of 3.26. `COc1ccc(S(I)=C(N(C)C)N(C)C)c([N+](=O)[O-])c1` (stereo unspecified) yielded a logP of -0.22. For `CCOC(=O)C(=Cc1ccccc1C)C(=O)OCC`, the log partition coefficient (logP) was found to be 3.22. The molecule `Nc1ccc(S(=O)(=O)Nc2ccccc2Cl)cc1` showed a logP of 2. `O=[N+]([O-])c1cc(Br)c(O)c(Br)c1` gave a logP of 3.57. The value for `CCC1(c2ccccc2)C(=O)NCNC1=O` was 0.91; that for `CP(C)c1ccccc1` was 2.57. For the molecule `OC(CF)CF`, the log partition coefficient (logP) is -0.36. With `N#CCCCc1ccccc1`, the lipophilicity (logP) turned out to be 2.21. Take `NC(N)=Nc1ccccc1`: the logP stood at 0.53. Turning to `NC(=O)OCc1ccc(Cl)cc1`, the lipophilicity (logP) came to 1.97. Take `Oc1cc(Cl)c(Cl)c(Cl)c1Cl`: the logP amounted to 4.21. On to `NNC(=O)c1cccc([N+](=O)[O-])c1`, for which the log partition coefficient (logP) came out at 0.23. Consider `CCc1cc(OP(=S)(OC)OC)ccc1[N+](=O)[O-]`, for which the log partition coefficient (logP) is 3.74. With `COc1ccc(NS(=O)(=O)c2ccc(N)cc2)nn1`, the lipophilicity (logP) amounted to 0.32. `OCCCCl` came in with a log partition coefficient (logP) of 0.5. Take `Nc1nc(N)nc(-c2ccccc2Cl)n1`: the logP was 1.19.

In turn, `O=C(C(=O)c1ccccc1)c1ccccc1` showed a logP of 3.38. The value for `Cc1cccc(C#N)n1` was 0.84; that for `O=C1C=CC(=O)N1c1ccccc1` was 1.09. Regarding `CCCCCNC(=O)c1ccc(S(N)(=O)=O)cc1`, the lipophilicity (logP) worked out at 1.51. For `O=[N+]([O-])c1cccc(Br)c1`, the logP is 2.64. `COC(=O)C(C)N(C(=O)c1ccco1)c1c(C)cccc1C` (stereo unspecified): the log partition coefficient (logP) came out at 2.61. The value for `Oc1c(F)c(F)c(F)c(F)c1F` was 3.23; that for `CCCCCCOC(=O)C(CC)C(CO)Cc1cncn1C` (stereo unspecified) was 2.71. `CCCCOC(=O)c1cc(O)c(O)c(O)c1`: the log partition coefficient (logP) was determined as 2.41. `O=C1CC(=O)NC(=O)N1` returned a log partition coefficient (logP) of -1.47. The value for `CCNc1ccccc1` was 2.16; that for `Cc1cc(Cl)c(N=C2NCCN2)c(Cl)c1` was 1.92; that for `O=[N+]([O-])c1ccc2nc(C(F)(F)F)[nH]c2c1` was 2.68. With `Oc1ccccc1O`, the lipophilicity (logP) was found to be 0.88. `N#CC(C#N)=NNc1ccccc1` returned a logP of 2.67.

`CCCNc1nc(NC)nc(SC(F)F)n1` gave a logP of 3.28. Molecule `CCCCC(CC)CN` (stereo unspecified) came in with a logP of 2.82. The value for `CC(C)(C)N(CC(O)COc1ccccc1)CC(O)COc1ccccc1` (stereo unspecified) was 3.99; that for `O=Cc1ccc2ccccc2n1` was 2.14; that for `CCNC(=O)NO` was -0.76.

With `C=CCC1=C(C)C(OC(=O)C2C(C=C(C)C)C2(C)C)CC1=O` (stereo unspecified), the logP came to 4.78.

In turn, `C[C@]12CC[C@H](O)C[C@H]1CC[C@@H]1[C@@H]2CC[C@]2(C)[C@@H](C3=CC(=O)OC3)CC[C@]12O` displayed a log partition coefficient (logP) of 2.64.

`NCCc1c[nH]c2ccccc12` showed a lipophilicity (logP) of 1.55. Molecule `CNC(=O)C1C(C)CC2C3CCC4=CC(=O)C=CC4(C)C3(F)C(O)CC21C` (stereo unspecified) displayed a logP of 1.54. Consider `c1ccc2[nH]cnc2c1`, for which the logP is 1.32.

For `CC(C)Oc1ccc([N+](=O)[O-])cc1`, the logP is 2.8. As to `CCCC(O)CCC`, the logP was 2.22. The molecule `O=c1ccnc(S)[nH]1` registered a log partition coefficient (logP) of -0.28.

As for `COc1ccc(N)cc1Cl`, the logP came to 1.85. `O=NN(CCCl)C(=O)Nc1ccccc1` gave a log partition coefficient (logP) of 2.49. The molecule `O=C(O)C(CO)c1ccccc1` (stereo unspecified) returned a logP of 0.77.

In the case of `C/C=C/C=C/C(=O)O`, the logP was 1.33. Regarding `COc1ccccc1N`, the lipophilicity (logP) amounted to 1.18. Consider `Clc1ccc(-c2cc(Cl)c(Cl)cc2Cl)cc1Cl`, for which the logP came out at 7.12. The molecule `Cc1nc([N+](=O)[O-])cn1CCO` came in with a lipophilicity (logP) of -0.59. As for `CS(=O)(=O)c1ccccc1`, the logP was 0.5. `CCCC(=O)Nc1ccccc1` yielded a log partition coefficient (logP) of 2.05. The same measure for `CC(=O)c1cccc(Cl)c1`: 2.51; for `Oc1cnc2ccccc2c1`: 2.08. In turn, `c1c[nH]nn1` registered a logP of -0.29. For the molecule `CCSc1ccccc1`, the lipophilicity (logP) came out at 3.2.

Consider `N#CSCc1ccccc1`, for which the logP turned out to be 1.99. For `CN1C(=O)CC(=O)NC1=O`, the log partition coefficient (logP) was -0.85.

For `CC(C)OC(=O)Nc1ccccc1`, the log partition coefficient (logP) turned out to be 2.6. `CN(C)C(=S)NN` gave a lipophilicity (logP) of -0.3. Take `CCCCC(C#N)(Cn1ccnc1)c1ccccc1` (stereo unspecified): the logP worked out at 2.94. The molecule `CC(C)(S)[C@@H](N)C(=O)O` displayed a log partition coefficient (logP) of -1.78. For `CN(C)C=CC#N`, the lipophilicity (logP) was 0.47.

The molecule `Nc1cccc2nc3ccccc3cc12` displayed a lipophilicity (logP) of 2.47. The value for `CSc1ccccc1` was 2.74; that for `COC(=O)Cn1ccnc1[N+](=O)[O-]` was -0.09.

`COc1cccc(NC(=O)N(CCCl)N=O)c1` yielded a logP of 2.66.
